Earlier results as cited in patent US12201732B2, “Transdermal patches for hangover minimization and/or recocery, and/or sleep improvement” (GameChanger Patch Co., priority 2020, dated 2025).

Columns and labels:
[1] = recent study
[2] = oral supplementation

| Structure (SMILES) | effect on hangover [1] | share metabolized by the human stomach in the first pass [2] [%] |
| --- | --- | --- |
| N[C@@H](CS)C(=O)O [L-cysteine] | mitigate hangover effects |  |
| N[C@@H](CCC(=O)N[C@@H](CS)C(=O)NCC(=O)O)C(=O)O [glutathione] |  | ≥ 90 |
